Results on twelve compounds are retold here after ChEMBL document CHEMBL3352798, “Cytotoxic vobasine, tacaman, and corynanthe-tryptamine bisindole alkaloids from Tabernaemontana and structure revision of tronoharine” (J Nat Prod, 2014).

≈ marks a conversion by molar mass, not a printed value.

Holding throughout (format): functional, cell-based
Assay [1] can be described thus: Cytotoxicity against vincristine-resistant human KB/VJ300 cells in presence of vincristine.
Another assay deals with KB. Briefly: Cytotoxicity against vincristine-sensitive human KB cells.
Assay [2] in a line: Cytotoxicity against vincristine-resistant human KB/VJ300 cells.

For `CC[C@@H]1CN(C)[C@H]2Cc3c([nH]c4ccccc34)C(=O)C[C@H]1[C@H]2C(=O)OC`, the IC50 in assay [1] is 9.4 µg/mL; with KB, 5.5 µg/mL (≈ 15.5 µM); in assay [2], above 25 µg/mL.

`COC(=O)[C@@H]1[C@@H]2Cc3c([nH]c4ccccc34)C(=O)C[C@@H]1[C@@]1(CN2C)O[C@H]1C`: the concentration for half-maximal inhibition (IC50) was above 25 µg/mL in assay [1], 5.7 µg/mL (≈ 15.5 µM) in the assay on KB and above 25 µg/mL in assay [2].

On to `CCC1=CN(C)[C@H]2Cc3c([nH]c4ccccc34)C(=O)C[C@H]1[C@@H]2C(=O)OC`, for which the results for the IC50 (in assay [1]; in the assay with KB; in assay [2]) were above 25 µg/mL, 18.9 µg/mL (≈ 53.6 µM) and above 25 µg/mL, respectively.

On to `COC(=O)[C@H]1[C@@H]2CC(=O)c3[nH]c4ccccc4c3C[C@@H]1N(C)C=C2C(C)=O`, for which the 50% inhibitory concentration (IC50) (in assay [1]; with KB; in assay [2]) was above 25 µg/mL each time.

`C/C=C1\CN2CC[C@@]3(C(=O)Nc4ccccc43)[C@@H]2C[C@H]1C[C@@H]1NCCc2c1[nH]c1ccccc21`: the IC50 in assay [1] was 8.4 µg/mL; in the assay with KB, 20 µg/mL (≈ 44.2 µM); in assay [2], above 25 µg/mL.

For `CC[C@H]1CN(C)[C@H]2Cc3c([nH]c4ccccc34)C(=O)C[C@H]1[C@@H]2C(=O)OC`, the IC50 (in assay [1]; in the assay on KB; in assay [2]) was above 25 µg/mL each time.

Take `C/C=C1/CN(C)[C@H]2Cc3c([nH]c4ccccc34)C(=O)C[C@H]1[C@H]2C(=O)OC`: the IC50 in assay [1] was found to be 13.5 µg/mL; in the assay with KB, 5.6 µg/mL (≈ 15.9 µM); in assay [2], 22 µg/mL (≈ 62.4 µM).

Take `COC(=O)[C@H]1[C@@H]2CC(=O)c3[nH]c4ccccc4c3C[C@@H]1N(C)C=C2C=O`: the half-inhibitory concentration (IC50) (in assay [1]; in the assay on KB; in assay [2]) was above 25 µg/mL in each case.

As for `COC(=O)[C@@H]1[C@@H]2CC(=O)c3[nH]c4ccccc4c3C[C@@H]1N(C)C=C2C=O`, the IC50 in assay [1] is above 25 µg/mL; with KB, 5.1 µg/mL (≈ 14.5 µM); in assay [2] it was above 25 µg/mL.

For `CC[C@@H]1CN(C)[C@H]2Cc3c([nH]c4ccccc34)C(=O)C[C@@H]1[C@H]2C(=O)OC` [TABERNAEMONTANINE], the IC50 (in assay [1]; in the assay on KB; in assay [2]) was above 25 µg/mL each time.

On to `CC[C@]1(O)C[C@H]2CN(CCc3c([nH]c4ccccc34)[C@@](C(=O)OC)(c3cc4c(cc3OC)N(C=O)[C@H]3[C@@](O)(C(=O)OC)[C@H](OC(C)=O)[C@]5(CC)C=CCN6CC[C@]43[C@@H]65)C2)C1` [VINCRISTINE], for which the IC50 with KB was 0.007 µg/mL (≈ 0.00849 µM); in assay [2] it was 5.4 µg/mL (≈ 6.55 µM).

Regarding `C/C=C1/CN(C)[C@H]2Cc3c([nH]c4ccccc34)C(=O)C[C@H]1[C@@H]2C(=O)OC` [VOBASINE], the IC50 (in assay [1]; with KB; in assay [2]) was above 25 µg/mL throughout.
